System: J774 macrophages
Assay: Cholesterol efflux in vivo (macrophage cholesterol export)
Conditions: mice injected with [3H]-cholesterol-loaded J774 cells; 20 μg, tail vein; versus PBS vehicle; FIG. 1
Method: FIG. 1 is a line graph comparing in vivo macrophage cholesterol export in mice treated with a liposomal formulation of the ACAT inhibitor, Sandoz 58-035, at an estimated dose of 20 μg (open circles), mice treated with 20 μg of free non-liposome formulated Sandoz 58-035 (closed circles), and mice administered phosphate buffered saline (closed triangles).
For non-liposome formulated Sandoz 58-035 experiments, 10 ul of the stock solution (2 mg/ml) was diluted with 190 ul of phosphate buffered saline (PBS) to give a final Sandoz 58-035 solution of 20 μg/200 μl. Two hundred microliters of this solution containing 20 μg of Sandoz 58-035 was injected into each mouse through the tail vein.
Sandoz 58-035 was liposome formulated using a modified method of Jonas and co-workers (Jonas et al. J. Bio. Chem. 1989 264:4818-4825). […]
To determine cholesterol export in vivo, J774 cells were loaded with cholesterol and simultaneously incubated for 3 hours with 0.5 μCi/mL [^3H]-cholesterol, followed by an overnight equilibration period as described by Tam et al. (J. Lipid Res. 2002 43:1410-1420). […] Cholesterol efflux was determined by measuring the appearance of [^3H]-cholesterol in plasma by scintillation spectrometry. […]

## CCCCCCCCCC[Si](C)(C)CCC(=O)NC(Cc1ccc(C)cc1)c1ccccc1 (stereo not shown) [Sandoz 58-035]
  in vivo macrophage cholesterol export (result in words): did not increase macrophage cholesterol export over the vehicle

Reference: US20060257466A1, “Administration of macrophage targeted formulations of compounds which modulate cholesterol-metabolizing enzymes for treatment of atherosclerosis” (priority 2005, published 2006)
